System: 885724-159-R-J1-PDC complex spheroid viability
Experiment: Anticancer human tumor 885724-159-R-J1-PDC patient-derived pancreatic adenocarcinoma cell line growth inhibition [GQUAD]
Settings: for IC50: curve of first compound; for viability, T/C: stronger effect = lower value
Outline: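 Multi-cell-type spheroids of tumor cells with HUVEC and mesenchymal stem cells, treated with drug combinations. Concentrations descend in half-log steps from near clinical Cmax, or from 10 microM where Cmax is unknown; viability read-out.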

[1] = second compound 0.0316 µM, first compound 0.0316 µM
[2] = second compound 0.0316 µM, first compound 0.1 µM
[3] = second compound 0.0316 µM, first compound 0.316 µM
[4] = second compound 0.0316 µM, first compound 1 µM
[5] = second compound 0.0316 µM, first compound 3.16 µM
[6] = second compound 0.0316 µM, first compound 10 µM
[7] = second compound 0.1 µM, first compound 0.0316 µM
[8] = second compound 0.1 µM, first compound 0.1 µM
[9] = second compound 0.1 µM, first compound 0.316 µM
[10] = second compound 0.1 µM, first compound 1 µM
[11] = second compound 0.1 µM, first compound 3.16 µM
[12] = second compound 0.1 µM, first compound 10 µM
[13] = second compound 0.316 µM, first compound 0.0316 µM
[14] = second compound 0.316 µM, first compound 0.1 µM
[15] = second compound 0.316 µM, first compound 0.316 µM
[16] = second compound 0.316 µM, first compound 1 µM
[17] = second compound 0.316 µM, first compound 3.16 µM
[18] = second compound 0.316 µM, first compound 10 µM
[19] = second compound 1 µM, first compound 0.0316 µM
[20] = second compound 1 µM, first compound 0.1 µM
[21] = second compound 1 µM, first compound 0.316 µM
[22] = second compound 1 µM, first compound 1 µM
[23] = second compound 1 µM, first compound 3.16 µM
[24] = second compound 1 µM, first compound 10 µM
[25] = second compound 3.16 µM, first compound 0.0316 µM
[26] = second compound 3.16 µM, first compound 0.1 µM
[27] = second compound 3.16 µM, first compound 0.316 µM
[28] = second compound 3.16 µM, first compound 1 µM
[29] = second compound 3.16 µM, first compound 3.16 µM
[30] = second compound 3.16 µM, first compound 10 µM
[31] = second compound 10 µM, first compound 0.0316 µM
[32] = second compound 10 µM, first compound 0.1 µM
[33] = second compound 10 µM, first compound 0.316 µM
[34] = second compound 10 µM, first compound 1 µM
[35] = second compound 10 µM, first compound 3.16 µM
[36] = second compound 10 µM, first compound 10 µM
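Further: spheroids exposed to agents for seven days before readout.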
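Wherever viability, T/C is given: percent of vehicle control viability where 100% = DMSO wells.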

Nc1ccn(C2OC(CO)C(O)C2(F)F)c(=O)n1 (stereo not drawn) + CN(C)c1ccc(Nc2c3ccc(NC(=O)CCN4CCCC4)cc3nc3cc(NC(=O)CCN4CCCC4)ccc23)cc1
IC50 (second compound 0.0316 µM): > 10 µM | IC50 (second compound 0.1 µM): > 10 µM | IC50 (second compound 0.316 µM): > 10 µM | IC50 (second compound 1 µM): > 10 µM | IC50 (second compound 3.16 µM): 1.83 µM | IC50 (second compound 10 µM): > 10 µM | viability, T/C [1]: 79.8% | viability, T/C [2]: 90.2% | viability, T/C [3]: 71% | viability, T/C [4]: 72.9% | viability, T/C [5]: 63.8% | viability, T/C [6]: 66.3% | viability, T/C [7]: 102% | viability, T/C [8]: 89.3% | viability, T/C [9]: 72.8% | viability, T/C [10]: 64.2% | viability, T/C [11]: 68.6% | viability, T/C [12]: 67% | viability, T/C [13]: 89.5% | viability, T/C [14]: 77.8% | viability, T/C [15]: 74.9% | viability, T/C [16]: 56.8% | viability, T/C [17]: 74% | viability, T/C [18]: 59.8% | viability, T/C [19]: 72% | viability, T/C [20]: 60.6% | viability, T/C [21]: 75% | viability, T/C [22]: 51.4% | viability, T/C [23]: 65.2% | viability, T/C [24]: 50.6% | viability, T/C [25]: 76.8% | viability, T/C [26]: 64.1% | viability, T/C [27]: 60.3% | viability, T/C [28]: 47.1% | viability, T/C [29]: 52.5% | viability, T/C [30]: 44.7% | viability, T/C [31]: 72.6% | viability, T/C [32]: 63.9% | viability, T/C [33]: 47.9% | viability, T/C [34]: 61.2% | viability, T/C [35]: 52.1% | viability, T/C [36]: 52.5%

COc1cc(C2c3cc4c(cc3C(OC3OC5COC(C)OC5C(O)C3O)C3COC(=O)C23)OCO4)cc(OC)c1O (stereo not drawn) + CN(C)c1ccc(Nc2c3ccc(NC(=O)CCN4CCCC4)cc3nc3cc(NC(=O)CCN4CCCC4)ccc23)cc1
IC50 (second compound 0.0316 µM): > 10 µM | IC50 (second compound 0.1 µM): > 10 µM | IC50 (second compound 0.316 µM): > 10 µM | IC50 (second compound 1 µM): > 10 µM | IC50 (second compound 3.16 µM): > 10 µM | IC50 (second compound 10 µM): > 10 µM | viability, T/C [1]: 94.3% | viability, T/C [2]: 90.8% | viability, T/C [3]: 84.4% | viability, T/C [4]: 87.6% | viability, T/C [5]: 73.3% | viability, T/C [6]: 72.6% | viability, T/C [7]: 114% | viability, T/C [8]: 87.2% | viability, T/C [9]: 83.2% | viability, T/C [10]: 81.8% | viability, T/C [11]: 80.6% | viability, T/C [12]: 69.4% | viability, T/C [13]: 104% | viability, T/C [14]: 82.9% | viability, T/C [15]: 90.8% | viability, T/C [16]: 89.5% | viability, T/C [17]: 76.3% | viability, T/C [18]: 64.2% | viability, T/C [19]: 91.6% | viability, T/C [20]: 86.1% | viability, T/C [21]: 70.4% | viability, T/C [22]: 76.6% | viability, T/C [23]: 76% | viability, T/C [24]: 60.4% | viability, T/C [25]: 73.1% | viability, T/C [26]: 63.1% | viability, T/C [27]: 69.5% | viability, T/C [28]: 56.6% | viability, T/C [29]: 63.4% | viability, T/C [30]: 57.8% | viability, T/C [31]: 73.4% | viability, T/C [32]: 74% | viability, T/C [33]: 68.2% | viability, T/C [34]: 82.6% | viability, T/C [35]: 71.4% | viability, T/C [36]: 56.6%

CCCS(=O)(=O)Nc1ccc(F)c(C(=O)c2c[nH]c3ncc(-c4ccc(Cl)cc4)cc23)c1F + CN(C)c1ccc(Nc2c3ccc(NC(=O)CCN4CCCC4)cc3nc3cc(NC(=O)CCN4CCCC4)ccc23)cc1
IC50 (second compound 0.0316 µM): > 10 µM | IC50 (second compound 0.1 µM): > 10 µM | IC50 (second compound 0.316 µM): > 10 µM | IC50 (second compound 1 µM): > 10 µM | IC50 (second compound 3.16 µM): 9.74 µM | IC50 (second compound 10 µM): 5.73 µM | viability, T/C [1]: 112% | viability, T/C [2]: 114% | viability, T/C [3]: 116% | viability, T/C [4]: 130% | viability, T/C [5]: 139% | viability, T/C [6]: 84.7% | viability, T/C [7]: 99.8% | viability, T/C [8]: 98.1% | viability, T/C [9]: 121% | viability, T/C [10]: 129% | viability, T/C [11]: 133% | viability, T/C [12]: 65.5% | viability, T/C [13]: 97% | viability, T/C [14]: 99.3% | viability, T/C [15]: 108% | viability, T/C [16]: 107% | viability, T/C [17]: 146% | viability, T/C [18]: 66% | viability, T/C [19]: 80.4% | viability, T/C [20]: 82% | viability, T/C [21]: 109% | viability, T/C [22]: 118% | viability, T/C [23]: 134% | viability, T/C [24]: 64.4% | viability, T/C [25]: 81% | viability, T/C [26]: 74.2% | viability, T/C [27]: 101% | viability, T/C [28]: 101% | viability, T/C [29]: 114% | viability, T/C [30]: 48.9% | viability, T/C [31]: 80.2% | viability, T/C [32]: 73.1% | viability, T/C [33]: 82.1% | viability, T/C [34]: 99.5% | viability, T/C [35]: 93.9% | viability, T/C [36]: 16.5%

COc1cccc2c1C(=O)c1c(O)c3c(c(O)c1C2=O)CC(O)(C(=O)CO)CC3OC1CC(N)C(O)C(C)O1 (stereo not drawn) + Cc1[nH]c2ccc(F)cc2c1-c1nc2c3cccnc3c3ncccc3c2[nH]1
IC50 (second compound 0.0316 µM): 1.97 µM | IC50 (second compound 0.1 µM): 2.29 µM | IC50 (second compound 0.316 µM): 2.49 µM | IC50 (second compound 1 µM): 2.53 µM | IC50 (second compound 3.16 µM): 0.0374 µM | IC50 (second compound 10 µM): 2 µM | viability, T/C [1]: 104% | viability, T/C [2]: 98.8% | viability, T/C [3]: 92% | viability, T/C [4]: 71.8% | viability, T/C [5]: 34.8% | viability, T/C [6]: 5.27% | viability, T/C [7]: 119% | viability, T/C [8]: 99.5% | viability, T/C [9]: 89.2% | viability, T/C [10]: 74.7% | viability, T/C [11]: 41% | viability, T/C [12]: 2.4% | viability, T/C [13]: 91% | viability, T/C [14]: 96.2% | viability, T/C [15]: 86.6% | viability, T/C [16]: 64% | viability, T/C [17]: 47.8% | viability, T/C [18]: 2.12% | viability, T/C [19]: 78.2% | viability, T/C [20]: 69.3% | viability, T/C [21]: 71.5% | viability, T/C [22]: 61.2% | viability, T/C [23]: 49% | viability, T/C [24]: 1.09% | viability, T/C [25]: 52.8% | viability, T/C [26]: 43.5% | viability, T/C [27]: 29.2% | viability, T/C [28]: 26.4% | viability, T/C [29]: 22.5% | viability, T/C [30]: 0.94% | viability, T/C [31]: 73.3% | viability, T/C [32]: 64.9% | viability, T/C [33]: 58.6% | viability, T/C [34]: 69.5% | viability, T/C [35]: 39% | viability, T/C [36]: 1.06%
